# Values quoted from earlier work, collected in patent US20090197952A1, “Glyceride Esters for the Treatment of Diseases Associated with Reduced Neuronal Metabolism of Glucose” (priority 2006, published 2009).
# Legend:
# [1] = test system: rat; conditions: rat feeding studies
# [2] = test system: mice; conditions: direct administration
# [3] = test system: rats; conditions: infusion
# [4] = test system: rats; conditions: rat, in vivo
# [5] = test system: patients; conditions: infused at 8-9.3 g/Kg body weight/day to affect hyperketonemia
compound,measurement,setting,value
CC(O)CC(=O)OCC(O)CO (racemic) [1-(DL-3-hydroxybutyryl)-glycerol],acute toxicity,[1],not acutely toxic
same,chronic toxicity,[1],did not show any indication of chronic toxicity
CC(O)CC(=O)OCC(COC(=O)CC(C)O)OC(=O)CC(C)O (racemic) [DL-tris-(3-hydroxybutyrl)-glycerol],acute toxicity,[1],not acutely toxic
same,chronic toxicity,[1],did not show any indication of chronic toxicity
CC(O)CC(=O)O (stereo not drawn) [3-hydroxybutyrate],protection against neurotoxin,[2],can protect mice against a neurotoxin
CC(=O)CC(=O)OCC(O)CO (stereo not drawn) [monoacetoacetin],detrimental side effects,[3]; elevated levels of ketone bodies achieved,without any detrimental side effects
same,rate at which it could be safely infused,[3]; level equivalent to 2/3 of the rat's daily caloric requirement,at least 50 g/kg body weight/day
CC(=O)CC(=O)OCC(COC(=O)CC(C)=O)OC(=O)CC(C)=O [triacetoacetin],tolerated amount,[4],10 g/Kg body weight/day
bisacetoacetin,detrimental side effects,[5],No detrimental side effects
